Legend:
Assay in all cases: relative viability (nuclei count vs DMSO), 5 days (fraction); higher = more cells survive
GSK-J4 + Trametinib = compound: CCOC(=O)CCNc1cc(N2CCc3ccccc3CC2)nc(-c2ccccn2)n1 [GSK-J4] + CC(=O)Nc1cccc(-n2c(=O)n(C3CC3)c(=O)c3c(Nc4ccc(I)cc4F)n(C)c(=O)c(C)c32)c1 [Trametinib] (partner 0.02 µM)
Method in brief: (§1)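 For relative viability, nuclei counts in treated wells were divided by those in vehicle wells. Lung cancer cell lines had been pin-tool dosed in 1536-well plates the day after seeding and cultured for 5 days, then fixed and stained in one step (final 0.05% Triton X-100, 1% formaldehyde, 1 ug/ml Hoechst) and imaged at 4×. Doses were one drug alone or a fixed anchor-drug dose plus five library-drug doses (not always all listed) in √10 steps, and values are duplicate-plate medians.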

GSK-J4 + AZD7762 = compound: CCOC(=O)CCNc1cc(N2CCc3ccccc3CC2)nc(-c2ccccn2)n1 [GSK-J4] + NC(=O)Nc1cc(-c2cccc(F)c2)sc1C(=O)N[C@H]1CCCNC1 [AZD7762] (partner 0.2 µM)
Method in brief: as §1

AZ3146 + Phenformin = compound: CN1CCC(CC1)OC2=CC(=C(C=C2)NC3=NC=C4C(=N3)N(C(=O)N4C)C5CCCC5)OC [AZ3146] + N=C(N)NC(=N)NCCc1ccccc1 [Phenformin] (partner 250 µM)
Method in brief: as §1

GSK-J4 + Pictilisib = compound: CCOC(=O)CCNc1cc(N2CCc3ccccc3CC2)nc(-c2ccccn2)n1 [GSK-J4] + CS(=O)(=O)N1CCN(Cc2cc3nc(-c4cccc5[nH]ncc45)nc(N4CCOCC4)c3s2)CC1 [Pictilisib] (partner 1 µM)
Method in brief: as §1

| Cell Line | relative viability (GSK-J4 + Trametinib; first compound 0.5 µM) | relative viability (GSK-J4 + Trametinib; first compound 1.581 µM) | relative viability (GSK-J4 + Trametinib; first compound 5 µM) | relative viability (GSK-J4 + Trametinib; first compound 15.81 µM) | relative viability (GSK-J4 + Trametinib; first compound 50 µM) | relative viability (GSK-J4 + AZD7762; first compound 0.5 µM) | relative viability (GSK-J4 + AZD7762; first compound 1.581 µM) | relative viability (GSK-J4 + AZD7762; first compound 5 µM) | relative viability (GSK-J4 + AZD7762; first compound 15.81 µM) | relative viability (GSK-J4 + AZD7762; first compound 50 µM) | relative viability (AZ3146 + Phenformin; first compound 0.08 µM) | relative viability (AZ3146 + Phenformin; first compound 0.253 µM) | relative viability (AZ3146 + Phenformin; first compound 0.8 µM) | relative viability (AZ3146 + Phenformin; first compound 2.53 µM) | relative viability (AZ3146 + Phenformin; first compound 8 µM) | relative viability (GSK-J4 + Pictilisib; first compound 0.5 µM) | relative viability (GSK-J4 + Pictilisib; first compound 5 µM) | relative viability (GSK-J4 + Pictilisib; first compound 15.81 µM) | relative viability (GSK-J4 + Pictilisib; first compound 50 µM) | relative viability (GSK-J4 + Pictilisib; first compound 1.581 µM) |
| --- | --- | --- | --- | --- | --- | --- | --- | --- | --- | --- | --- | --- | --- | --- | --- | --- | --- | --- | --- | --- |
| NCI-H1666 | 0.843 | 0.695 | 0.923 | 0.704 | 0.77 | 0.889 | 0.807 | 0.688 | 0.768 | 0.573 | 0.592 | 0.574 | 0.53 | 0.608 | 0.528 | 0.325 | 0.419 | 0.603 | 0.364 | – |
| NCI-H2085 | 0.482 | 0.663 | 0.586 | 0.517 | 0.57 | 0.926 | 0.896 | 0.888 | 0.792 | 0.936 | 0.659 | 0.67 | 0.67 | 0.757 | 0.477 | 0.546 | 0.677 | 0.481 | 0.415 | 0.463 |
| LXF-289 | 0.696 | 0.592 | 0.688 | 0.654 | 0.584 | 1.09 | 0.836 | 0.742 | 1.07 | 0.987 | 0.535 | 0.49 | 0.524 | 0.528 | 0.43 | 0.761 | 0.691 | 0.754 | 0.562 | 0.655 |
| NCI-H322M | 0.513 | 0.482 | 0.623 | 0.457 | 0.503 | 0.618 | 0.506 | 0.555 | 0.636 | 0.536 | 0.82 | 0.811 | 0.715 | 0.833 | 0.585 | 0.544 | 0.7 | 0.538 | 0.465 | 0.574 |
| LU99A | 0.551 | 0.485 | – | 0.441 | 0.35 | 0.277 | 0.249 | – | 0.244 | 0.126 | 0.687 | 0.841 | 0.676 | 0.8 | 0.842 | 0.277 | 0.292 | 0.346 | 0.219 | 0.276 |
| NCI-H650 | 0.949 | 0.871 | – | 0.771 | 0.745 | 0.938 | 1.04 | – | 0.782 | 0.696 | 0.386 | 0.44 | 0.445 | 0.526 | 0.461 | 0.839 | 0.789 | 0.779 | 0.468 | 0.798 |
| PC-14 | 0.68 | 0.663 | 0.503 | 0.738 | 0.691 | 0.503 | 0.316 | – | 0.315 | 0.343 | 0.563 | 0.465 | – | 0.579 | 0.314 | 0.642 | 0.678 | 0.714 | 0.615 | 0.672 |
| HARA | 0.6 | 0.799 | – | 0.516 | 0.471 | 0.349 | 0.36 | – | 0.218 | 0.161 | 0.384 | 0.415 | 0.436 | 0.41 | 0.404 | 0.375 | – | 0.524 | 0.156 | 0.443 |
| NCI-H1944 | 0.4 | 0.394 | – | 0.307 | 0.357 | 0.492 | 0.64 | – | 0.414 | 0.427 | 0.168 | 0.18 | 0.188 | 0.19 | 0.207 | 0.374 | 0.353 | 0.336 | 0.288 | 0.346 |
| LK-2 | 0.655 | 0.727 | 1.27 | 0.664 | 1.04 | 0.53 | 0.29 | 0.663 | 0.168 | 0.19 | 0.397 | 0.392 | 0.292 | 0.409 | 0.295 | 0.573 | 0.736 | 0.456 | 0.443 | 0.531 |
| HCC-44 | 1.1 | 0.91 | 1.06 | 1.04 | 1.03 | 0.95 | 0.939 | 0.962 | 1.11 | 1.05 | 0.118 | 0.124 | 0.0902 | 0.364 | 0.273 | 0.665 | 0.498 | 0.553 | 0.442 | 0.57 |
| CAL-12T | 0.337 | 0.314 | 0.424 | 0.288 | 0.254 | 0.705 | 0.646 | 0.557 | 0.649 | 0.675 | 0.674 | 0.575 | 0.568 | 0.6 | 0.405 | 0.622 | 0.626 | 0.418 | 0.454 | 0.425 |
| NCI-H2405 | 0.586 | 0.63 | – | 0.48 | 0.749 | 0.774 | 0.954 | – | 0.677 | 0.738 | 0.4 | 0.309 | 0.304 | 0.373 | 0.366 | 0.465 | – | 0.708 | 0.475 | 0.713 |
| NCI-H1395 | 1.04 | 0.919 | 1.02 | 0.806 | 0.854 | 0.403 | 0.415 | 0.409 | 0.351 | 0.413 | 0.394 | 0.45 | 0.379 | 0.423 | 0.445 | 0.578 | 0.544 | 0.573 | 0.518 | 0.524 |
| 201T | 0.719 | 0.615 | 0.711 | 0.735 | 0.69 | 0.602 | 0.673 | 0.581 | 0.561 | 0.609 | 0.448 | 0.446 | 0.438 | 0.424 | 0.455 | 0.653 | 0.726 | 0.687 | 0.598 | 0.791 |
| NCI-H358 | 0.145 | – | 0.157 | 0.118 | 0.131 | 0.598 | 0.576 | 0.692 | 0.606 | 0.44 | 0.451 | 0.283 | 0.319 | 0.313 | 0.149 | 0.459 | 0.377 | 0.407 | 0.268 | 0.304 |
| NCI-H596 | 0.797 | 0.759 | 0.639 | 0.725 | 0.771 | 1.18 | 1.12 | 1.01 | 0.926 | 1.12 | 0.672 | 0.738 | 0.722 | 0.735 | 0.797 | 0.417 | 0.365 | 0.431 | 0.369 | 0.428 |

Reference: the supplement of paper PMC10307832
